Test results published in a compilation of properties of binary mixtures (doi:10.1016/j.molliq.2012.11.030).

Assay: xn = mol fraction of the nth substance listed
Settings: 298.15 K, 101 kPa

CC(=O)[O-].CC[NH3+] + O
Settings | electrical conductivity [S/m]
x1 = 0.003 | 0.782
x1 = 0.0103 | 1.89
x2 = 0 | 0.222
x2 = 0.2027 | 0.452
x2 = 0.3481 | 0.745
x2 = 0.7999 | 2.48
x2 = 0.8502 | 2.75
x2 = 0.9436 | 3.1
x2 = 0.9502 | 3.11
x2 = 0.96 | 3.08
x2 = 0.9685 | 2.9
x2 = 0.9799 | 2.65
